Test results published in patent US9693556B2, “Herbicidal pyridazinone derivatives” (SYNGENTA LIMITED, priority 2011, dated 2017).

Tests used:
Format in all cases: in vivo
[1] = system: Amaranthus retoflexus (AMARE); assay: Pre-emergence herbicidal glasshouse test on Amaranthus retoflexus; conditions: pre-emergence; 1000 g/h; evaluated after 13 days
In short: (§1)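 Application rate 1000 g/h, formulated in acetone/water (50:50) with 0.5% Tween 20 and sprayed onto pots sown 1 day (pre-emergence) or 8 days (post-emergence) earlier. Evaluation at 13 days rated damage from 1 (0-19%) to 5 (80-100%).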

[2] = system: Echinochloa crus-galli (ECHCG); assay: Pre-emergence herbicidal glasshouse test on Echinochloa crus-galli; conditions: pre-emergence; 1000 g/h; evaluated after 13 days
In short: as §1

[3] = system: Setaria faberi (SETFA); assay: Post-emergence herbicidal glasshouse test on Setaria faberi; conditions: post-emergence; 1000 g/h; evaluated after 13 days
In short: as §1

[4] = system: Solanum nigrum (SOLNI); assay: Pre-emergence herbicidal glasshouse test on Solanum nigrum; conditions: pre-emergence; 1000 g/h; evaluated after 13 days
In short: as §1

[5] = system: Ipomoea hederacea (IPOHE); assay: Pre-emergence herbicidal glasshouse test on Ipomoea hederacea; conditions: pre-emergence; 1000 g/h; evaluated after 13 days
In short: as §1

[6] = system: Alopecurus myosuroides (ALOMY); assay: Post-emergence herbicidal glasshouse test on Alopecurus myosuroides; conditions: post-emergence; 1000 g/h; evaluated after 13 days
In short: as §1

[7] = system: Ipomoea hederacea (IPOHE); assay: Post-emergence herbicidal glasshouse test on Ipomoea hederacea; conditions: post-emergence; 1000 g/h; evaluated after 13 days
In short: as §1

[8] = system: Echinochloa crus-galli (ECHCG); assay: Post-emergence herbicidal glasshouse test on Echinochloa crus-galli; conditions: post-emergence; 1000 g/h; evaluated after 13 days
In short: as §1

[9] = system: Alopecurus myosuroides (ALOMY); assay: Pre-emergence herbicidal glasshouse test on Alopecurus myosuroides; conditions: pre-emergence; 1000 g/h; evaluated after 13 days
In short: as §1

[10] = system: Setaria faberi (SETFA); assay: Pre-emergence herbicidal glasshouse test on Setaria faberi; conditions: pre-emergence; 1000 g/h; evaluated after 13 days
In short: as §1

[11] = system: Solanum nigrum (SOLNI); assay: Post-emergence herbicidal glasshouse test on Solanum nigrum; conditions: post-emergence; 1000 g/h; evaluated after 13 days
In short: as §1

[12] = system: Amaranthus retoflexus (AMARE); assay: Post-emergence herbicidal glasshouse test on Amaranthus retoflexus; conditions: post-emergence; 1000 g/h; evaluated after 13 days
In short: as §1

Row | SMILES | PRE Application AMARE herbicidal damage (five point scale) [1] | PRE Application ECHCG herbicidal damage (five point scale) [2] | POST Application SETFA herbicidal damage (five point scale) [3] | PRE Application SOLNI herbicidal damage (five point scale) [4] | PRE Application IPOHE herbicidal damage (five point scale) [5] | POST Application ALOMY herbicidal damage (five point scale) [6] | POST Application IPOHE herbicidal damage (five point scale) [7] | POST Application ECHCG herbicidal damage (five point scale) [8] | PRE Application ALOMY herbicidal damage (five point scale) [9] | PRE Application SETFA herbicidal damage (five point scale) [10] | POST Application SOLNI herbicidal damage (five point scale) [11] | POST Application AMARE herbicidal damage (five point scale) [12]
1 | COc1c(Cl)ccc(-c2cnn(C)c(=O)c2O)c1F [Compound 1.063] | 1 (1=0-19% damage) | 1 (1=0-19% damage) | 1 (1=0-19% damage) | 1 (1=0-19% damage) | 1 (1=0-19% damage) | 1 (1=0-19% damage) | 3 (3=40-59% damage) | 1 (1=0-19% damage) | 1 (1=0-19% damage) | 1 (1=0-19% damage) | 2 (2=20-39% damage) | 3 (3=40-59% damage)
2 | CN(C)c1c(Cl)ccc(-c2cnn(C)c(=O)c2O)c1F [Compound 1.064] | 1 (1=0-19% damage) | 1 (1=0-19% damage) | 1 (1=0-19% damage) | 1 (1=0-19% damage) | 1 (1=0-19% damage) | 1 (1=0-19% damage) | 4 (4=60-79% damage) | 1 (1=0-19% damage) | 1 (1=0-19% damage) | 1 (1=0-19% damage) | 5 (5=80-100% damage) | 5 (5=80-100% damage)
3 | Cn1ncc(-n2ccc(O)c(C#N)c2=O)c(O)c1=O [Compound 1.066] | 4 (4=60-79% damage) | 2 (2=20-39% damage) | 1 (1=0-19% damage) | 4 (4=60-79% damage) | 5 (5=80-100% damage) | 2 (2=20-39% damage) | 2 (2=20-39% damage) | 1 (1=0-19% damage) | 3 (3=40-59% damage) | 1 (1=0-19% damage) | 3 (3=40-59% damage) | 1 (1=0-19% damage)
4 | Cc1nc(C(F)(F)F)ccc1-c1cnn(C)c(=O)c1O [Compound 1.067] | 4 (4=60-79% damage) | 5 (5=80-100% damage) | 4 (4=60-79% damage) | 3 (3=40-59% damage) | 2 (2=20-39% damage) | 2 (2=20-39% damage) | 5 (5=80-100% damage) | 5 (5=80-100% damage) | 1 (1=0-19% damage) | 1 (1=0-19% damage) | 5 (5=80-100% damage) | 5 (5=80-100% damage)
5 | Cc1nc(C(C)F)ccc1-c1cnn(C)c(=O)c1O (stereo not drawn) [Compound 1.068] | 4 (4=60-79% damage) | 5 (5=80-100% damage) | 3 (3=40-59% damage) | 4 (4=60-79% damage) | 3 (3=40-59% damage) | 3 (3=40-59% damage) | 5 (5=80-100% damage) | 5 (5=80-100% damage) | 2 (2=20-39% damage) | 2 (2=20-39% damage) | 5 (5=80-100% damage) | 5 (5=80-100% damage)
6 | Cn1ncc(-n2ccc3ccccc3c2=O)c(O)c1=O [Compound 1.069] | 2 (2=20-39% damage) | 5 (5=80-100% damage) | 1 (1=0-19% damage) | 2 (2=20-39% damage) | 4 (4=60-79% damage) | 2 (2=20-39% damage) | 4 (4=60-79% damage) | 5 (5=80-100% damage) | 1 (1=0-19% damage) | 2 (2=20-39% damage) | 4 (4=60-79% damage) | 5 (5=80-100% damage)
7 | COc1cccn(-c2cnn(C)c(=O)c2O)c1=O [Compound 1.070] | 1 (1=0-19% damage) | 1 (1=0-19% damage) | 4 (4=60-79% damage) | 1 (1=0-19% damage) | 1 (1=0-19% damage) | 1 (1=0-19% damage) | 1 (1=0-19% damage) | 4 (4=60-79% damage) | 1 (1=0-19% damage) | 1 (1=0-19% damage) | 4 (4=60-79% damage) | 3 (3=40-59% damage)
8 | Cn1ncc(-c2ccc(C#N)cc2C(F)(F)F)c(O)c1=O [Compound 1.071] | 5 (5=80-100% damage) | 5 (5=80-100% damage) | 4 (4=60-79% damage) | 5 (5=80-100% damage) | 2 (2=20-39% damage) | 3 (3=40-59% damage) | 5 (5=80-100% damage) | 5 (5=80-100% damage) | 4 (4=60-79% damage) | 4 (4=60-79% damage) | 5 (5=80-100% damage) | 5 (5=80-100% damage)
9 | COCCOCc1nc(C(F)(F)F)ccc1-c1cnn(C)c(=O)c1O [Compound 1.072] | 5 (5=80-100% damage) | 5 (5=80-100% damage) | 5 (5=80-100% damage) | 5 (5=80-100% damage) | 5 (5=80-100% damage) | 4 (4=60-79% damage) | 5 (5=80-100% damage) | 5 (5=80-100% damage) | 4 (4=60-79% damage) | 5 (5=80-100% damage) | 5 (5=80-100% damage) | 5 (5=80-100% damage)
10 | COCc1nc(C(F)(F)F)ccc1-c1cnn(C)c(=O)c1O [Compound 1.073] | 5 (5=80-100% damage) | 5 (5=80-100% damage) | 5 (5=80-100% damage) | 5 (5=80-100% damage) | 2 (2=20-39% damage) | 4 (4=60-79% damage) | 5 (5=80-100% damage) | 5 (5=80-100% damage) | 5 (5=80-100% damage) | 5 (5=80-100% damage) | 5 (5=80-100% damage) | 5 (5=80-100% damage)
11 | Cn1ncc(-c2cc3cc(F)cnc3n(-c3ccsc3)c2=O)c(O)c1=O [Compound 1.074] | 5 (5=80-100% damage) | 4 (4=60-79% damage) | 5 (5=80-100% damage) | 1 (1=0-19% damage) | 1 (1=0-19% damage) | 2 (2=20-39% damage) | 5 (5=80-100% damage) | 5 (5=80-100% damage) | 2 (2=20-39% damage) | 1 (1=0-19% damage) | 5 (5=80-100% damage) | 5 (5=80-100% damage)
